These are literature values, as cited in US20140256762A1, “ARTEMISININ-BASED COMBINATION THERAPY FOR TREATING VIRAL MEDIATED DISEASE” (priority 2012, published 2014).

The conditions of data set [1]: background statement.
For data set [2] the following is noted: background statement. This is another data set of the same source.

Each structure is given as a SMILES string.

On to `COc1ccc2cc3[n+](cc2c1OC)CCc1cc2c(cc1-3)OCO2` [Berberine, (5,6-Dihydro-9,10-dimethoxybenzo[g]-1,3-benzodioxolo[5,6-a]quinolizinium)], for which the Genotoxic activity result in data set [1] is on record as “no genotoxic activity”. Further, the Toxicity entry in data set [1] (generally considered) is reported as “non-toxic”.
Regarding `C[C@H]1[C@H](OC(=O)CCC(=O)O)O[C@@H]2O[C@@]3(C)CC[C@H]4[C@H](C)CC[C@@H]1[C@@]24OO3` [artesunate, 3R,5aS,6R,8aS,9R,10S,12R,12aR)-Decahydro-3,6,9-trimethyl-3,12-epoxy-12H-pyrano(4,3-j)-1,2-benzodioxepin-10-ol hydrogen succinate], in data set [2], the Solubility result is given as “water-soluble”.
Regarding `C[C@@H]1CC[C@H]2[C@@H](C)C(=O)O[C@@H]3O[C@@]4(C)CC[C@@H]1[C@]32OO4` [artemisinin], in data set [2], the Solubility result is listed as “sparingly soluble in either water or oils”.
With `CO[C@H]1O[C@@H]2O[C@@]3(C)CC[C@H]4[C@H](C)CC[C@@H]([C@H]1C)[C@@]24OO3` [artemether, (+)-(3-alpha,5a-beta,6-beta,8a-beta, 9-alpha,12-beta,12aR)-decahydro-10-methoxy-3,6,9-trimethyl-3,12-epoxy-12H-pyrano(4,3-j)-1,2-benzodioxepin], the Solubility entry in data set [2] is reported as “lipid-soluble”.
